Patent US20230167073A1 (Teijin Pharma Limited, priority 2020, published 2023)

What follows are compounds tested against T1, Human TRPC6 (Homo sapiens, UniProt Q9Y210) (assay: Evaluation of TRPC6 channel inhibitory activity (1), FLIPR Calcium 5 Assay Kit, OAG stimulation (Compound Nos. 1-1293)). Settings: Human TRPC6 stably-expressing cells, OAG 30 μM, FLIPR Calcium 5 Assay Kit; read-out: Inhibitory activity (pIC50 class) (converted).
T1 construct: expressed in transfected cells
T1 sequence (Q9Y210 1-931): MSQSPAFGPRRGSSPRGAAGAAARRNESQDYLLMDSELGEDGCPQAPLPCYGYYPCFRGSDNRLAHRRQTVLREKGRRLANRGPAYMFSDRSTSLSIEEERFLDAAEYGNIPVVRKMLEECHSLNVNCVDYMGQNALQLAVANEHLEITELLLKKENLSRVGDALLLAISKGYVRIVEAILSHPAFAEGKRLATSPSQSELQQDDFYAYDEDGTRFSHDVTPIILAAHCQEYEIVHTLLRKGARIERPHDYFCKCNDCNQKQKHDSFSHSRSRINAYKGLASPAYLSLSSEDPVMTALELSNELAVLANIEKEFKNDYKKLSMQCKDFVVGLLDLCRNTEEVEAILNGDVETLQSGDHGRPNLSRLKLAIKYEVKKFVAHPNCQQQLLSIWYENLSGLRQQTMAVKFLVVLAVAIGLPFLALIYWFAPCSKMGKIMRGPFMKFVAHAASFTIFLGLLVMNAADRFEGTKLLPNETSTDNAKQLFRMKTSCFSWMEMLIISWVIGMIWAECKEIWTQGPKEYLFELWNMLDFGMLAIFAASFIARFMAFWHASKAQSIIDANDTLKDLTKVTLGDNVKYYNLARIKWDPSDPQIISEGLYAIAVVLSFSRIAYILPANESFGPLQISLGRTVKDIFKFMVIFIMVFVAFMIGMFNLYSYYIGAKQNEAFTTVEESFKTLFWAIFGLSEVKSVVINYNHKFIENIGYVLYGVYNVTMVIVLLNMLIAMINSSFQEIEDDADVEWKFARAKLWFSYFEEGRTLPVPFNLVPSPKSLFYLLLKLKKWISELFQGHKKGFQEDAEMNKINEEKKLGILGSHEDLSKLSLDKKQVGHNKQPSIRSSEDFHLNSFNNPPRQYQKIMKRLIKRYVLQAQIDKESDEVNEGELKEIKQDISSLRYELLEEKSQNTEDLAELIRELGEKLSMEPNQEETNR
Format: cell-based
Summary of the method: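 Readout is pIC50 from four-parameter logistic fitting of inhibition of the OAG-evoked (30 μM final) fluorescence calcium signal. Human TRPC6 stable cells are dye-loaded with probenecid, and compound is applied 20 min ahead of agonist.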
`Cn1nc(C(C)(C)C)cc1C(O)c1cc(C#N)ccc1-c1ncc(CCN)cn1` (stereo not shown) [compound 1235, 4-[5-(2-aminoethyl)pyrimidin-2-yl]-3-[(5-tert-butyl-2-methylpyrazol-3-yl)-hydroxymethyl]benzonitrile] gave an IC50 of 10 to 1000 nM.
With `COC(c1cc(C#N)ccc1-c1ncc(CCN)cn1)c1cc(C(C)(C)C)nn1C` (stereo not shown) [compound 1236, 4-[5-(2-aminoethyl)pyrimidin-2-yl]-3-[(5-tert-butyl-2-methylpyrazol-3-yl)-methoxymethyl]benzonitrile] the IC50 was 10 to 1000 nM.
`N#Cc1ccc(-c2ccc(C(O)CN)cc2)c(Sc2cnnc(N3CCOCC3)c2)c1` (stereo not shown) [compound 1238, 4-[4-(2-amino-1-hydroxyethyl)phenyl]-3-(6-morpholin-4-ylpyridazin-4-yl)sulfanylbenzonitrile] was tested, and the IC50 was greater than 1000 nM.
In the case of `N#Cc1ccc(-c2ccc(CCN)cc2)c(Sc2cnnc(N3CCOCC3)c2)c1` [compound 1239, 4-[4-(2-aminoethyl)phenyl]-3-(6-morpholin-4-ylpyridazin-4-yl)sulfanylbenzonitrile], the IC50 is reported as less than 10 nM.
Work on `N#Cc1ccc(-c2ccc(CCN)cc2)c(Sc2cnnc(N3CCCC3)c2)c1` [compound 1241, 4-[4-(2-aminoethyl)phenyl]-3-(6-pyrrolidin-1-ylpyridazin-4-yl)sulfanylbenzonitrile] yielded an IC50 of less than 10 nM.
`N#Cc1ccc(-c2ccc(CCN)cn2)c(Sc2cnnc(N3CCOCC3)c2)c1` [compound 1242, 4-[5-(2-aminoethyl)pyridin-2-yl]-3-(6-morpholin-4-ylpyridazin-4-yl)sulfanylbenzonitrile] gave an IC50 of 10 to 1000 nM.
In the case of `N#Cc1ccc(-c2ccc(CCN)cn2)c(Sc2cnnc(N3CCCCC3)c2)c1` [compound 1243, 4-[5-(2-aminoethyl)pyridin-2-yl]-3-(6-piperidin-1-ylpyridazin-4-yl)sulfanylbenzonitrile], the IC50 is reported as less than 10 nM.
Compound `N#Cc1ccc(-c2ccc(CCN)cn2)c(Sc2cnnc(N3CCCC3)c2)c1` [compound 1244, 4-[5-(2-aminoethyl)pyridin-2-yl]-3-(6-pyrrolidin-1-ylpyridazin-4-yl)sulfanylbenzonitrile] has an IC50 of less than 10 nM.
With `N#Cc1ccc(-n2cc(CCN)cn2)c(Sc2cnnc(N3CCOCC3)c2)c1` [compound 1245, 4-[4-(2-aminoethyl)pyrazol-1-yl]-3-(6-morpholin-4-ylpyridazin-4-yl)sulfanylbenzonitrile] the IC50 was 10 to 1000 nM.
In the case of `N#Cc1ccc(-n2cc(CCN)cn2)c(Sc2cnnc(N3CCCC3)c2)c1` [compound 1247, 4-[4-(2-aminoethyl)pyrazol-1-yl]-3-(6-pyrrolidin-1-ylpyridazin-4-yl)sulfanylbenzonitrile], the IC50 is reported as 10 to 1000 nM.
`Cc1nc(Sc2cc(C#N)ccc2-c2ccc(CCN)cn2)cc(N2CCOCC2)n1` [compound 1248, 4-[5-(2-aminoethyl)pyridin-2-yl]-3-(2-methyl-6-morpholin-4-ylpyrimidin-4-yl)sulfanylbenzonitrile] gave an IC50 of 10 to 1000 nM.
`Cc1nc(Sc2cc(C#N)ccc2-c2ccc(CCN)cn2)cc(N2CCCCC2)n1` [compound 1249, 4-[5-(2-aminoethyl)pyridin-2-yl]-3-(2-methyl-6-piperidin-1-ylpyrimidin-4-yl)sulfanylbenzonitrile] gave an IC50 of less than 10 nM.
In the case of `Cc1nc(Sc2cc(C#N)ccc2-c2ccc(CCN)cn2)cc(N2CCCC2)n1` [compound 1250, 4-[5-(2-aminoethyl)pyridin-2-yl]-3-(2-methyl-6-pyrrolidin-1-ylpyrimidin-4-yl)sulfanylbenzonitrile], the IC50 is reported as 10 to 1000 nM.
For `Cc1nc(Sc2cc(C#N)ccc2-n2cc(CCN)cn2)cc(N2CCOCC2)n1` [compound 1251, 4-[4-(2-aminoethyl)pyrazol-1-yl]-3-(2-methyl-6-morpholin-4-ylpyrimidin-4-yl)sulfanylbenzonitrile], the IC50 was 10 to 1000 nM.
In the case of `Cc1nc(Sc2cc(C#N)ccc2-n2cc(CCN)cn2)cc(N2CCCCC2)n1` [compound 1252, 4-[4-(2-aminoethyl)pyrazol-1-yl]-3-(2-methyl-6-piperidin-1-ylpyrimidin-4-yl)sulfanylbenzonitrile], the IC50 is reported as 10 to 1000 nM.
Work on `Cc1nc(Sc2cc(C#N)ccc2-n2cc(CCN)cn2)cc(N2CCCC2)n1` [compound 1253, 4-[4-(2-aminoethyl)pyrazol-1-yl]-3-(2-methyl-6-pyrrolidin-1-ylpyrimidin-4-yl)sulfanylbenzonitrile] yielded an IC50 of 10 to 1000 nM.
Work on `Cc1nc(Sc2cc(C#N)ccc2-c2ncc(CCN)cn2)cc(N2CCOCC2)n1` [compound 1254, 4-[5-(2-aminoethyl)pyrimidin-2-yl]-3-(2-methyl-6-morpholin-4-ylpyrimidin-4-yl)sulfanylbenzonitrile] yielded an IC50 of 10 to 1000 nM.
Work on `Cc1nc(Sc2cc(C#N)ccc2-c2ncc(CCN)cn2)cc(N2CCCCC2)n1` [compound 1255, 4-[5-(2-aminoethyl)pyrimidin-2-yl]-3-(2-methyl-6-piperidin-1-ylpyrimidin-4-yl)sulfanylbenzonitrile] yielded an IC50 of less than 10 nM.
`Cc1nc(Sc2cc(C#N)ccc2-c2ncc(CCN)cn2)cc(N2CCCC2)n1` [compound 1256, 4-[5-(2-aminoethyl)pyrimidin-2-yl]-3-(2-methyl-6-pyrrolidin-1-ylpyrimidin-4-yl)sulfanylbenzonitrile] showed an IC50 of 10 to 1000 nM.
Work on `N#Cc1ccc(-c2ncc(CCN)cn2)c(Sc2cnnc(N3CCOCC3)c2)c1` [compound 1257, 4-[5-(2-aminoethyl)pyrimidin-2-yl]-3-(6-morpholin-4-ylpyridazin-4-yl)sulfanylbenzonitrile] yielded an IC50 of 10 to 1000 nM.
`N#Cc1ccc(-c2ncc(CCN)cn2)c(Sc2cnnc(N3CCCCC3)c2)c1` [compound 1258, 4-[5-(2-aminoethyl)pyrimidin-2-yl]-3-(6-piperidin-1-ylpyridazin-4-yl)sulfanylbenzonitrile] showed an IC50 of less than 10 nM.
For `N#Cc1ccc(-c2ncc(CCN)cn2)c(Sc2cnnc(N3CCCC3)c2)c1` [compound 1259, 4-[5-(2-aminoethyl)pyrimidin-2-yl]-3-(6-pyrrolidin-1-ylpyridazin-4-yl)sulfanylbenzonitrile], the IC50 was less than 10 nM.
Compound `Cc1cc(Sc2cc(C#N)ccc2-c2ncc(CCN)cn2)cc(N2CCOCC2)n1` [compound 1260, 4-[5-(2-aminoethyl)pyrimidin-2-yl]-3-(2-methyl-6-morpholin-4-ylpyridin-4-yl)sulfanylbenzonitrile] has an IC50 of 10 to 1000 nM.
`Cc1cc(Sc2cc(C#N)ccc2-c2ncc(CN)cn2)cc(N2CCOCC2)n1` [compound 1261, 4-[5-(aminomethyl)pyrimidin-2-yl]-3-(2-methyl-6-morpholin-4-ylpyridin-4-yl)sulfanylbenzonitrile] was tested, and the IC50 was greater than 1000 nM.
Compound `Cc1nc(Sc2cc(C#N)ccc2-c2ncc(CN)cn2)cc(N2CCCC2)n1` [compound 1262, 4-[5-(aminomethyl)pyrimidin-2-yl]-3-(2-methyl-6-pyrrolidin-1-ylpyrimidin-4-yl)sulfanylbenzonitrile] has an IC50 greater than 1000 nM.
For `Cc1nc(Sc2cc(C#N)ccc2-c2ncc(CN)cn2)cc(N(C)C)n1` [compound 1263, 4-[5-(aminomethyl)pyrimidin-2-yl]-3-[6-(dimethylamino)-2-methylpyrimidin-4-yl]sulfanylbenzonitrile], the IC50 was greater than 1000 nM.
With `N#Cc1ccc(-c2ccc(CN)cn2)c(Sc2cnnc(N3CCCC3)c2)c1` [compound 1264, 4-[5-(aminomethyl)pyridin-2-yl]-3-(6-pyrrolidin-1-ylpyridazin-4-yl)sulfanylbenzonitrile] the IC50 was 10 to 1000 nM.
`N#Cc1ccc(-c2ncc(CN)cn2)c(Sc2cnnc(N3CCCC3)c2)c1` [compound 1265, 4-[5-(aminomethyl)pyrimidin-2-yl]-3-(6-pyrrolidin-1-ylpyridazin-4-yl)sulfanylbenzonitrile] was tested, and the IC50 was 10 to 1000 nM.
